This is an account of results in patent US20100303934A1, “METHODS AND COMPOSITIONS FOR NERVE REGENERATION” (Oregon Health & Science University, priority 2004, published 2010).

The subject of test [1] is SH-SY5Y human neuroblastoma cells. In words: Neurite elongation (neurite outgrowth length) assay in SH-SY5Y cells in the presence of NGF. The class given is cell-based. As to conditions: for Activity in the neurite elongation assay (FIG. 17): tested at 1 μm, in the presence of NGF; for Process elongation in micrographs (FIGS. 3-10): SH-SY5Y cells at 168 hours, with NGF. As to the method: SH-SY5Y human neuroblastoma cells were maintained in DMEM medium (GIBCO) supplemented with 10% fetal calf serum (SIGMA), 50 IU/mL penicillin, and […] streptomycin (GIBCO) at 37° C. in 7% CO2. Cells were plated in six-well plates at 1×10^6 cells/well and treated with […] aphidicolin (SIGMA). At five days, cells were washed, treated with nerve growth factor (NGF) (Boehringer Mannheim, Indianapolis, Ind.) at 10 ng/mL (to induce process outgrowth) in the presence or absence of the Centella asiatica extract and extract fractions (100 μg/mL). […] All experiments were run in duplicate wells and repeated at least twice for reproducibility.
Neurite lengths were measured on photographic prints using a SummaSketch III digitizing tablet connected with Bioquant Classic 95 software (R&M Biometrics, Nashville, Term.); only those processes greater than two times the cell body length were measured. […] Histograms were compared using a Mann-Whitney U test, which makes no assumptions about the shape of the distribution.

The subject of test [2] is SHSY5Y neuroblastoma cells. In words: Protection against hydrogen peroxide induced toxicity (CellTiter Blue / LDH). Type of test: cell-based, human. The settings on record: positive control, concentration not given; H2O2 125 to 500 μM. The protocol:
SHSY5Y neuroblastoma cells were grown in DMEM/F12 medium (from Gibco) containing 10% fetal calf serum (FCS), 100 ug/ml streptomycin sulphate, 100 U/ml penicillin G in a humidified air/5% CO2 chamber at 37 C. The following method was followed: Day1. Plate SHSY5Y cells on 24-well plate at 100,000/well Day4. Remove old medium, add fresh medium with 10 ng/ml NGF. Day5. Add GK, GKW or EGCG (epigallocatechin gallate; a known antioxidant), overnight. Day6. Remove old medium (containing test substances), add fresh medium (2% FCS) with 10 ng/ml NGF. Treat cells with or without H2O2, for 2-3 hours. Remove medium and H2O2, wash 1× with fresh medium with NGF, add fresh medium (2% FCS) with NGF again, incubate overnight. Day7. Harvest supernatant for LDH assay. Add fresh medium and CellTiter Blue reagent (from Promega, containing resazurin) into each well, incubate for 2 hours, read fluorescence under the Fluorometer. @ 560 nm EX/590 nm EM, cut off 590 nm.
A general note: Resazurin is reduced to fluorescent resorufin, in cell work by metabolically active cells.

Take `C=CC[C@@H]1/C=C(\C)C[C@H](C)C[C@H](OC)[C@H]2O[C@@](O)(C(=O)C(=O)N3CCCC[C@H]3C(=O)O[C@H](/C(C)=C/[C@@H]3CC[C@@H](O)[C@H](OC)C3)[C@H](C)[C@@H](O)CC1=O)[C@H](C)C[C@@H]2OC` [FK506, reference compound]: the “Neurite elongation activity in the absence of NGF” value in test [1] (absence of NGF) is given as “no activity”.

On to `O=C(O[C@@H]1Cc2c(O)cc(O)cc2O[C@@H]1c1cc(O)c(O)c(O)c1)c1cc(O)c(O)c(O)c1` [EGCG, epigallocatechin gallate], for which the “Protection against H2O2 toxicity” value in test [2] is recorded as “protective”.

In the case of `C[C@H]1[C@H](C)CC[C@]2(C(=O)O)CC[C@]3(C)C(=CC[C@@H]4[C@@]5(C)C[C@@H](O)[C@H](O)[C@@](C)(CO)[C@@H]5[C@H](O)C[C@]43C)[C@H]12` [madecassic acid], the “Activity in the neurite elongation assay (FIG. 17)” value (from here on “Activity … (FIG. 17)”) in test [1] is listed as “active”. For the molecule `C[C@H]1[C@H](C)CC[C@]2(C(=O)O)CC[C@]3(C)C(=CC[C@@H]4[C@@]5(C)C[C@@H](O)[C@H](O)[C@@](C)(CO)[C@@H]5CC[C@]43C)[C@H]12` [asiatic acid], in test [1] (FIG. 10, 168 hours), the “Activity of AA in the presence of the MEK inhibitor PD 098059” value was “prevented”. In addition, in test [1], the “Process elongation in micrographs (FIGS. 3-10)” value is given as “markedly increased” and the “Activity … (FIG. 17)” value is given as “active”. Moreover, the “Stimulation of neurite outgrowth elongation” value in test [1] (concentration of 104 (0.5 μg/mL)) was “considerable stimulation”. madecassoside: the “Activity … (FIG. 17)” value in test [1] is “not active”.

B1: NGF: nerve growth factor (Boehringer Mannheim), 10 ng/mL, used to induce process outgrowth (protein, UniProt P01139 122-241, looked up)
Beta-nerve growth factor: SSTHPVFHMGEFSVCDSVSVWVGDKTTATDIKGKEVTVLAEVNINNSVFRQYFFETKCRASNPVESGCRGIDSKHWNSYCTTTHTFVKALTTDEKQAAWRFIRIDTACVCVLSRKATRRG
modifications: Beta-nerve growth factor
notes: nerve growth factor (Boehringer Mannheim), 10 ng/mL, used to induce process outgrowth
Regarding B1, the “Process elongation in micrographs (FIGS. 3-10)” value in test [1] is “demonstrate process elongation”. In test [1] (test substance 100 μg/mL, in the presence of NGF (10 ng/mL), 168 h), the “Mean neurite length (μm) at 168 h” value is 115 μm.
